From patent US11021435B2, “Serotonin receptor-targeting compounds and methods” (priority 2014, dated 2021)
Entries after “also recorded” stand apart in the source; their conditions may differ.

Legend:
[1] = molecular target: T1, adrenergic α1A receptor (Homo sapiens, UniProt P35348); experiment: Off-target binding affinity, adrenergic α1A
T1 construct: expressed in transfected cells; host or cells: HEK293, transient
T1 sequence (P35348 1-466): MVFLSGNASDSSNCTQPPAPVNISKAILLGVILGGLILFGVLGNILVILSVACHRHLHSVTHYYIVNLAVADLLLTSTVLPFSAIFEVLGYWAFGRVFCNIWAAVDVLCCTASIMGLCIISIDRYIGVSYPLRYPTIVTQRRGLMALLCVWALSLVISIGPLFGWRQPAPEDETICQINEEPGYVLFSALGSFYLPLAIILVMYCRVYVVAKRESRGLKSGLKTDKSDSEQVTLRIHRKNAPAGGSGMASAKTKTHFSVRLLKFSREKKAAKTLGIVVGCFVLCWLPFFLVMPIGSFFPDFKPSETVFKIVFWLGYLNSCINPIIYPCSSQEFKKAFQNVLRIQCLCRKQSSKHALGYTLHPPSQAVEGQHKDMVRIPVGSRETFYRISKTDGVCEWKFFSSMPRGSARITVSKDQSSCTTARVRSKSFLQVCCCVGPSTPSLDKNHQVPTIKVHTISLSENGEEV

[2] = molecular target: T2, mouse 5-HT2C receptor (m5-HT2C-VNV) (Mus musculus, UniProt P34968, I157V/I161V); experiment: Binding affinity, HEK293 cells transiently expressing mouse 5-HT2C; conditions: for Ki: mouse m5-HT2C-VNV
T2 construct: expressed in transfected cells; host or cells: HEK293, transient
T2 sequence (P34968 33-459 I157V/I161V): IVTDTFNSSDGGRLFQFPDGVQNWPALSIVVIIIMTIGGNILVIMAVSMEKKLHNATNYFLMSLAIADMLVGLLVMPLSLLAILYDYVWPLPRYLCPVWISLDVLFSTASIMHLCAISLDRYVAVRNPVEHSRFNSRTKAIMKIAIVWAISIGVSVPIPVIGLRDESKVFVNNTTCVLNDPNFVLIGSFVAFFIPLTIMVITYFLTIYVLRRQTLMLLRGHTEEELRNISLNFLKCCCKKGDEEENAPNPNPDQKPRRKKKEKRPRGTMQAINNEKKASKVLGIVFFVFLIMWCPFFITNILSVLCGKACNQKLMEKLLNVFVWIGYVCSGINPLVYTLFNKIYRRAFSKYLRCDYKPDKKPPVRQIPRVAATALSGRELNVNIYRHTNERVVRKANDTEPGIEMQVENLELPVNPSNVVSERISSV

[3] = molecular target: T3, 5-HT2C receptors (5-HT2C-INI) (Homo sapiens, UniProt P28335); experiment: Binding affinity, HEK293 cells transiently over-expressing human 5-HT2C; conditions: human 5-HT2C-INI
T3 construct: expressed in transfected cells; host or cells: HEK293, transient
T3 sequence (P28335 33-458): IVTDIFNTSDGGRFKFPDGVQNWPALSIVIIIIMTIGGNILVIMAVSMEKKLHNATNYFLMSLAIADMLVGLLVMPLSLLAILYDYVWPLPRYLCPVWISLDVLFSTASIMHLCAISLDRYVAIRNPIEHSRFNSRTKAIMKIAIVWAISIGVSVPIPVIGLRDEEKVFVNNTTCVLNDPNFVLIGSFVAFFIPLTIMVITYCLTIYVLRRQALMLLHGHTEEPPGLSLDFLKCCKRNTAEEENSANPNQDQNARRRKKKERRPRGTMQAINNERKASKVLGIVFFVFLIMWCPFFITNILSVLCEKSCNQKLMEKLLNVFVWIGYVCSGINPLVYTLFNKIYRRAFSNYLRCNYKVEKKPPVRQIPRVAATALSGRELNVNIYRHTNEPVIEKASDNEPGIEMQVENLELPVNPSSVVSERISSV

[4] = molecular target: T4, 5-HT2A (Homo sapiens, UniProt P28223); experiment: Functional assay at 5-HT2A, relative to 5-HT; format: cell-based; design: expressed in transfected cells; host or cells: HEK293, transient; conditions: for Functional activity at 5-HT2A, in words: no activation stated up to 100 μM
T4 sequence (P28223 whole entry): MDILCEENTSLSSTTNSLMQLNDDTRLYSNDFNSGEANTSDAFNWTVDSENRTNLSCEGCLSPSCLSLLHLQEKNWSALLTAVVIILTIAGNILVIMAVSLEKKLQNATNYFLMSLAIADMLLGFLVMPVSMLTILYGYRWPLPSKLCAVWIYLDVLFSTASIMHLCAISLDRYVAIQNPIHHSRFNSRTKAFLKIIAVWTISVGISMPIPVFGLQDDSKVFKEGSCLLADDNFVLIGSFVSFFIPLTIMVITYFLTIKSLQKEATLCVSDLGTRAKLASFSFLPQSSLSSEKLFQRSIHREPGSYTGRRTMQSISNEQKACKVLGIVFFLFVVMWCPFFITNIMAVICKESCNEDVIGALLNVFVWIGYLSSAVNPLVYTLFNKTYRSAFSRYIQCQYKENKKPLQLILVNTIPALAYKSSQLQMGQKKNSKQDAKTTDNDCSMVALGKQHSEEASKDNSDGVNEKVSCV

[5] = molecular target: T5, mouse 5-HT2A receptor (Mus musculus, UniProt P35363); experiment: Binding affinity, HEK293 cells transiently expressing mouse 5-HT2A; conditions: for Ki: mouse, mean (SEM), read-out: Affinity Ki m5-HT2A
T5 construct: expressed in transfected cells; host or cells: HEK293, transient
T5 sequence (P35363 whole entry): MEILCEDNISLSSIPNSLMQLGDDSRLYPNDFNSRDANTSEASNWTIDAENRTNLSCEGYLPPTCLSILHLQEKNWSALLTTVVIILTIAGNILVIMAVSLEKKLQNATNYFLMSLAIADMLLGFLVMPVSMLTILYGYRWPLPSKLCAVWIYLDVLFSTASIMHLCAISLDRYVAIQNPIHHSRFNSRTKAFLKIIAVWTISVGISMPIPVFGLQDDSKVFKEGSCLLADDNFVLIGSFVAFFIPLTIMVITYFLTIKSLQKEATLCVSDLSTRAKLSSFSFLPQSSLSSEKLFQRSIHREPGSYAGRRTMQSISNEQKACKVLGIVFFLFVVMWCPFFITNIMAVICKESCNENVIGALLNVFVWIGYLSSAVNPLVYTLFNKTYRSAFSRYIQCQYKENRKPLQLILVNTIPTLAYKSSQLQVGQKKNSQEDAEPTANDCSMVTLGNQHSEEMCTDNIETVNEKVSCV

[6] = tested on: C57BI/6J mice; experiment: DOI-elicited head-twitch response (HTR) in C57BI/6J mice; conditions: for DOI-elicited HTR: C57BI/6J mice, 5-FPT up to 5.6 mg/kg, AS-19 10 mg/kg, DPAT 0.5 mg/kg
Excerpt: The 5-HT2A receptor is a predominant 5-HT receptor in the cortex, and serves important excitation modulation functions on glutamate pyramidal and GABA neurons.

[7] = molecular target: T6, 5-HT2B (Homo sapiens, UniProt P41595); experiment: Functional assay at 5-HT2B, relative to 5-HT; format: cell-based; design: expressed in transfected cells; host or cells: HEK293, transient; conditions: for Functional activity at 5-HT2B, in words: up to 100 μM
T6 sequence (P41595 whole entry): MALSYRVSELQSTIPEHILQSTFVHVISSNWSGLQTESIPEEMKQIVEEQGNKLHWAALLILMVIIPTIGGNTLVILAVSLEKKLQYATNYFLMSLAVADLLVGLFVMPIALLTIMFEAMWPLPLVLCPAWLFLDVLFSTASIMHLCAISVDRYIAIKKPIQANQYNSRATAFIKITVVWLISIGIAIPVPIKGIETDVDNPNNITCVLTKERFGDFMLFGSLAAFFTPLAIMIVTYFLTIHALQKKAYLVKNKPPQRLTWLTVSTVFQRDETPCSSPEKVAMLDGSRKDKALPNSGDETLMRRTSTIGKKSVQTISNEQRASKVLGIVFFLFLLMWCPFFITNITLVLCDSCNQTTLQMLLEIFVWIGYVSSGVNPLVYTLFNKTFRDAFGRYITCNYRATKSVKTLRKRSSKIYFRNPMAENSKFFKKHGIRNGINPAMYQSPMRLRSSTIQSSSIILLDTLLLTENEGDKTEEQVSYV

[8] = molecular target: T7, human 5-HT7 receptors (Homo sapiens, UniProt P34969); experiment: Functional assay, 5-HT7 Gs-cAMP signaling, relative to AS-19; format: cell-based; conditions: for Functional activity at 5-HT7, in words / EC50: Gs-cAMP signaling
T7 construct: expressed in transfected cells
T7 sequence (P34969 1-445 isoform P34969-2): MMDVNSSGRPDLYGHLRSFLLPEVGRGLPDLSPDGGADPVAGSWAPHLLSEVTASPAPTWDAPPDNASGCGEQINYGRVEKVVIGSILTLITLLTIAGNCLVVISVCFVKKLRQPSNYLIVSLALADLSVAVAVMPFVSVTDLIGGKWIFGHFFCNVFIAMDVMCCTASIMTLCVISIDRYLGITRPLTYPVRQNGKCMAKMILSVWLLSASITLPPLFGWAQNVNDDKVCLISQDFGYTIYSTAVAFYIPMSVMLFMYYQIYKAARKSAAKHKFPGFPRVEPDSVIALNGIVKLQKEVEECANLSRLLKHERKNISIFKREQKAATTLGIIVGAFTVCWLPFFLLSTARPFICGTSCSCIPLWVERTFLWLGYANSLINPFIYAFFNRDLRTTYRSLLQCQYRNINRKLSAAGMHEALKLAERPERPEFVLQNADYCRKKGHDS

[9] = molecular target: T8, histamine H1 receptor (Homo sapiens, UniProt P35367); experiment: Off-target binding affinity, histamine H1
T8 construct: expressed in transfected cells; host or cells: HEK293, transient
T8 sequence (P35367 whole entry): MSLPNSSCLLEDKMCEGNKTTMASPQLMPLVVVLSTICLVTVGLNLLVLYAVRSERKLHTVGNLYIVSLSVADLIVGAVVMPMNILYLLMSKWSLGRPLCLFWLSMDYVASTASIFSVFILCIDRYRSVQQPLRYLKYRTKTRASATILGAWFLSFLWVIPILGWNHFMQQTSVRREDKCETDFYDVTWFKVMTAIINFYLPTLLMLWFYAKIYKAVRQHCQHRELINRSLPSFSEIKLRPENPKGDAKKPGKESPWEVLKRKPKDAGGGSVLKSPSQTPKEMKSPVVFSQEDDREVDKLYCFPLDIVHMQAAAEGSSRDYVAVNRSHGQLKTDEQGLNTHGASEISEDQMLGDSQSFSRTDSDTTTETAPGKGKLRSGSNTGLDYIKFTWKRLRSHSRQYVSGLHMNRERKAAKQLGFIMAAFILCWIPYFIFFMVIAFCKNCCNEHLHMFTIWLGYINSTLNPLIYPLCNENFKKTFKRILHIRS

[10] = molecular target: T9, 5-HT2C (Homo sapiens, UniProt P28335); experiment: Functional assay at 5-HT2C, relative to 5-HT; format: cell-based; design: expressed in transfected cells; host or cells: HEK293, transient
T9 sequence (P28335 33-458): T3 sequence (P28335 33-458)

[11] = molecular target: T6, 5-HT2B; experiment: Binding affinity, HEK293 cells transiently over-expressing human 5-HT2B; design: expressed in transfected cells; host or cells: HEK293, transient; conditions: mean (SEM)
[12] = molecular target: T4, 5-HT2A; experiment: Binding affinity, HEK293 cells transiently over-expressing human 5-HT2A; design: expressed in transfected cells; host or cells: HEK293, transient; conditions: for Ki: human, mean (SEM)
[13] = molecular target: T10, human 5-HT7 receptors (5-HT7a) (Homo sapiens, UniProt P34969); experiment: Radioligand competition binding ([3H]5-CT), HEK293 cells stably expressing human 5-HT7 receptors; conditions: for Ki: human 5-HT7a, mean (SEM), at least three independent experiments, read-out: Affinity Ki 5-HT7
T10 construct: expressed in transfected cells
T10 sequence (P34969 1-445 isoform P34969-2): as the sequence (P34969 1-445 isoform P34969-2) above
Excerpt: FIGS. 4A-4C show the effects of 5-FPT are stereospecific. […] Data are expressed as the mean±SEM.

[14] = molecular target: T11, dopamine D2 receptor (Homo sapiens, UniProt P14416); experiment: Off-target binding affinity, dopamine D2
T11 construct: expressed in transfected cells; host or cells: HEK293, transient
T11 sequence (P14416 whole entry): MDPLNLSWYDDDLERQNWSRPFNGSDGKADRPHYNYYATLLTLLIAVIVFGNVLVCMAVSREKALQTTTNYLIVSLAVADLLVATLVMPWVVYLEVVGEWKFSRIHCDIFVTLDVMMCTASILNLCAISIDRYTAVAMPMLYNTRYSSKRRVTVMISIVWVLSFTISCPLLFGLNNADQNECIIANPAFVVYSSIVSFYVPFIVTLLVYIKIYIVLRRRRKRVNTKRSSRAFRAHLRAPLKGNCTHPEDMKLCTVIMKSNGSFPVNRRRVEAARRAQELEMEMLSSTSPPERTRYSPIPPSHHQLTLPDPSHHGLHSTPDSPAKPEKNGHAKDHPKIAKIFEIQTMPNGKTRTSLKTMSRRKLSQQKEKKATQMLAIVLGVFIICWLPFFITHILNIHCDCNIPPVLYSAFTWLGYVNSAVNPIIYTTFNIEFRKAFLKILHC

[15] = % of maximal response relative to 5-HT, mean (SEM)
[16] = % of maximal response relative to AS-19, mean (SEM)

SMILES | Ki [1] [nM] | Functional activity at 5-HT2A, in words [4] | Ki [5] [nM] | DOI-elicited HTR ([6]; DOI 1 mg/kg) | Functional activity at 5-HT2B, in words [7] | Functional activity at 5-HT7, in words [8] | EC50 ([8]; mean (SEM)) [nM] | Ki [9] [nM] | Functional activity at 5-HT2C, in words [10] | Ki [11] [nM] | Ki [12] [nM] | Ki [13] [nM] | Ki [14] [nM] | other results
CN(C)C1CCc2c(cccc2-c2ccccc2F)C1 (single isomer, unassigned; (+)) [(+)-5-FPT, 5-(2′-fluorophenyl)-N,N-dimethyl-1,2,3,4-tetrahydronaphthalen-2-amine] | > 10000 | very low potency, partial agonist | 632 | dose-dependently attenuated the DOI-elicited HTR; also recorded: significantly attenuated the DOI HTR; also recorded: dose-dependently blocks | devoid of 5-HT2B activity | partial agonist | 34 | > 1000 | nearly full-efficacy agonist | 60 | 886 | 5.8 | > 1000 | Mouse 5-HT2C versus human 5-HT2C receptor affinity [2]: ~2.5 times; Ki ([2]; mean (SEM)): 0.644 µM; Ki ([3]; mean (SEM)): 0.269 µM; Emax [4, 15]: 39%; EC50 ([4]; mean (SEM)): 3530 nM; DOI-elicited HTR, compound given 120 min (2 hrs) before testing ([6]; 5.6 mg/kg, DOI 1 mg/kg): remained significant; also recorded: retains efficacy; DOI-elicited HTR, compound given 180 min (3 hrs) before testing ([6]; 5.6 mg/kg, DOI 1 mg/kg): did not block the DOI HTR; DOI-elicited HTR after oral administration ([6]; oral gavage 3 mg/kg 10 min prior to subcutaneous 1 mg/kg DOI): significantly attenuated the DOI HTR; also recorded: attenuates the HTR; EC50 5-HT2B ([7]; Inactive = no activation up to 100 μM): Inactive; EMAX 5-HT2B ([7]; relative to 5-HT, Inactive = no activation up to 100 μM): Inactive; Emax [8, 16]: 33%; Emax [10, 15]: 87%; EC50 ([10]; mean (SEM)): 230 nM; Affinity at 5-HT2A receptors, in words [12]: very low; 5-HT7 affinity, (+)-enantiomer more potent than (−)-enantiomer ([13]; ratio of Ki values): about 80 times
CN(C)C1CCc2c(cccc2-c2ccccc2F)C1 (single isomer, unassigned; (-)) [(−)-5-FPT, 5-(2′-fluorophenyl)-N,N-dimethyl-1,2,3,4-tetrahydronaphthalen-2-amine] | > 10000 | did not activate | 147 | substantially less efficacious than (+)-5-FPT | did not activate | partial agonism; also recorded: low-potency | 378 | > 1000 | low-potency | 684 | 119 | 460 | > 1000 | Ki ([2]; bound given in μM): > 1 µM; Ki ([3]; bound given in μM): > 1 µM; Higher affinity than (+)-5-FPT at mouse 5-HT2A receptors [5]: ~4 fold; EMAX 5-HT7 [8, 16]: 29%; 5-HT7 functional potency, (−)-enantiomer less potent than (+)-isomer ([8]; ratio of EC50 values): about 11 times; Higher affinity than (+)-5-FPT at human 5-HT2A receptors [12]: ~8 fold
